Patent US9790221B2, “Heteroaryl compounds as IRAK inhibitors and uses thereof” (Merck Patent GmbH, priority 2014, dated 2017)
Structures can show the parent of a compound that is named as a salt.

Tests used:
[1] = biological target: IRAK1 (His-TEV-IRAK1 (194-712)) (Homo sapiens (Human), UniProt P51617); experiment: IRAK1 enzymatic assay; assay type: biochemical
Protocol: IRAK1 is a human purified recombinant enzyme (His-TEV-IRAK1 (194-712)). In this assay, IRAK-1 hydrolyses ATP and autophosphorylates. Measurement of IRAK-1 inhibition was performed in streptavidin coated 384well FlashPlate (PerkinElmer #SMP410A).
His-TEV-IRAK-1 (15 ng/well), ATP (1 μM, [33P]ATP 0.25 μCi/well) and compounds in DMSO (range of concentrations from 20 µM to 1 nM) or controls (2% DMSO) were incubated for 3 hours at 30° C. in assay buffer: Hepes pH7.0 50 mM, Fatty acid-free BSA 0.1%, Dithiothreitol DTT 2 mM, MgCl2 10 mM, EGTA 0.5 mM, Triton-X-100 0.01%. Kinase reaction was stopped by addition of EDTA. Supernatant was discarded, plates were washed three times with 150 mM NaCl and radioactivity was then measured in a Microbeta Trilux reader.

[2] = biological target: IRAK4 (Homo sapiens (Human), UniProt Q9NWZ3); experiment: IRAK4 enzymatic assay; assay type: biochemical
Chain of IRAK4 (Q9NWZ3 whole entry): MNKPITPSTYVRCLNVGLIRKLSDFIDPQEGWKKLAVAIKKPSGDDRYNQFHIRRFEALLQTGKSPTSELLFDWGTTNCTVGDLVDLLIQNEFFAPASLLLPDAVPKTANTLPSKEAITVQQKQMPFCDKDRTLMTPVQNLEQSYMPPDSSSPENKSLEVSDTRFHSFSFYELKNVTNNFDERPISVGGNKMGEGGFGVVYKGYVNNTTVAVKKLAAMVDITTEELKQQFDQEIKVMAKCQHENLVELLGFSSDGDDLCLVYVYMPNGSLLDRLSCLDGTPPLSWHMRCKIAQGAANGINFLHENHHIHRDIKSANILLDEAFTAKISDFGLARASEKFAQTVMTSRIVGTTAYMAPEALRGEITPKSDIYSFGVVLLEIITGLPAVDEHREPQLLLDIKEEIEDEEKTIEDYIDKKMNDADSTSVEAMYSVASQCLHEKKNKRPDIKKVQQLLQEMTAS
Protocol: IRAK4 is a human purified recombinant enzyme ([…]. IRAK4 hydrolyses ATP, autophosphorylates and phosphorylates a Serine/Threonine generic peptidic substrate (STK: 61ST1BLC from CisBio International based in Bagnols/Cèze FR).
Measurement of IRAK-4 inhibition was performed in streptavidin coated 384well FlashPlate (PerkinElmer #SMP410A). His-TEV-IRAK4 (20 ng/well), ATP (2 μM, [^33P]ATP 0.25 µCi/well), STK1-biotin peptide (300 nM) and compounds in DMSO (range of concentrations from 20 µM to 1 nM) or controls (2% DMSO) were incubated for 3 hours at 30° C. in assay buffer: Hepes pH7.0 50 mM, Fatty acid-free BSA 0.1%, Dithiothreitol DTT 2 mM, MgCl2 10 mM, EGTA 0.5 mM, Tween-20 0.01%, MnCl2 5 mM.
Kinase reaction was stopped by addition of EDTA. Supernatant was discarded, plates were washed three times with 150 mM NaCl and radioactivity was then measured in a Microbeta Trilux reader.

Chain of IRAK1 (His-TEV-IRAK1 (194-712)) (P51617 194-712): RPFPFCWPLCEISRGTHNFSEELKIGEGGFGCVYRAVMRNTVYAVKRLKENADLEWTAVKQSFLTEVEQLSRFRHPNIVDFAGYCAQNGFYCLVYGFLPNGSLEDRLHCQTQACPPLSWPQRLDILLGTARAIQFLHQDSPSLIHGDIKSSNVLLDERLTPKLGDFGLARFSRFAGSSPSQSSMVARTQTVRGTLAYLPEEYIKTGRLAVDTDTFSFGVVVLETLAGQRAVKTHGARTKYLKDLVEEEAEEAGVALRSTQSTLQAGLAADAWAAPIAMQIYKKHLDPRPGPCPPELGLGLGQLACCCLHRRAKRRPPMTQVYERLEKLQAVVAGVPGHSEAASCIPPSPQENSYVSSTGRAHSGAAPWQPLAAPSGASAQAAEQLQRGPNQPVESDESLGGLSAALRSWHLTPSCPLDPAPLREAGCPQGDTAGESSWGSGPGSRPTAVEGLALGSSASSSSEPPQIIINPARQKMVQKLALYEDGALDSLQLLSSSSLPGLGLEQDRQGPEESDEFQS

| SMILES | IC50 [1] [µM] | IC50 [2] [nM] |
| --- | --- | --- |
| Cn1cc(-c2cccc(-c3ncc(-c4ccn(C)n4)c(N[C@H]4CCC[C@@H]4O)n3)c2)cn1 (racemic) [Example 95] | > 5 | < 100 |
| Cn1cc(-c2cccc(-c3ncc(-c4ccn(C)n4)c(NC[C@H]4CCNC[C@H]4O)n3)c2)cn1 (racemic) [Example 116] | > 5 | 100 to 1000 |
| Cn1cc(-c2cccc(-c3ncc(-c4cnn(C)c4)c(NC[C@H]4CCNC[C@H]4O)n3)c2)cn1 (racemic) [Example 126] | > 5 | 100 to 1000 |
| Cn1cc(-c2cccc(-c3ncc(-c4cnn(C)c4)c(NC[C@H]4CC[C@@H](O)C4)n3)c2)cn1 (racemic) [Example 164] | 1 to 5 | < 100 |
| Cn1cc(-c2cccc(-c3ncc(-c4cnn(C)c4)c(NC[C@H]4CC[C@H](O)C4)n3)c2)cn1 (racemic) [Example 165] | 0.1 to 1 | < 100 |
| Cn1cc(-c2cccc(-c3ncc(-c4cnn(C)c4)c(NCC4CCOC4)n3)c2)cn1 (racemic) [Example 166] | 0.1 to 1 | < 100 |
| Cn1cc(-c2cccc(-c3ncc(-c4cnn(C)c4)c(N[C@@H]4CC[C@H](NS(C)(=O)=O)C4)n3)c2)cn1 (racemic) [Example 176] | 1 to 5 | < 100 |
| CC(=O)N[C@@H]1CCC[C@@H]1CNc1nc(-c2cccc(-c3cnn(C)c3)c2)ncc1-c1cnn(C)c1 (relative stereo) [Example 206, N-[(Cis)-2-({5-(1-Methyl-1H-pyrazol-4-yl)-2-[3-(1-methyl-1H-pyrazol-4-yl)-phenyl]-pyrimidin-4-ylamino}-methyl)-cyclopentyl]-acetamide] | > 5 | 100 to 1000 |
| Cn1cc(-c2cccc(-c3ccc(-c4cnn(C5CCNCC5)c4)cn3)n2)cn1 [Example 2, 6′-(1-Methyl-1H-pyrazol-4-yl)-5-(1-piperidin-4-yl-1H-pyrazol-4-yl)-[2,2′]bipyridinyl] | 1 to 5 | 100 to 1000 |
| Cn1cc(-c2cccc(-c3ncc(-c4cnn(C)c4)c(NCC4CCCN(C(=O)OC(C)(C)C)C4)n3)c2)cn1 (centres unmarked) [Example 3, 3-({5-(1-Methyl-1H-pyrazol-4-yl)-2-[3-(1-methyl-1H-pyrazol-4-yl)-phenyl]-pyrimidin-4-ylamino}-methyl)-piperidine-1-carboxylic Acid Tert-Butyl Ester] | 1 to 5 | – |
| Cn1cc(-c2cccc(-c3ncc(-c4cnn(C)c4)c(NCC4CCCNC4)n3)c2)cn1 (centres unmarked) [Example 4, {5-(1-Methyl-1H-pyrazol-4-yl)-2-[3-(1-methyl-1H-pyrazol-4-yl)-phenyl]-pyrimidin-4-yl}-piperidin-3-ylmethyl-amine Hydrochloride] | 1 to 5 | 1000 to 5000 |
| Cn1cc(-c2cccc(-c3ncc(-c4cnn(C)c4)c(N4CCCC(CNC(=O)OC(C)(C)C)C4)n3)c2)cn1 (centres unmarked) [Example 5, (1-{5-(1-Methyl-1H-pyrazol-4-yl)-2-[3-(1-methyl-1H-pyrazol-4-yl)-phenyl]-pyrimidin-4-yl}-piperidin-3-ylmethyl)-carbamic Acid Tert-Butyl Ester] | 1 to 5 | > 5000 |
| Cn1cc(-c2cccc(-c3ncc(-c4cnn(C)c4)c(N4CCCC(CN)C4)n3)c2)cn1 (centres unmarked) [Example 6, C-(1-{5-(1-Methyl-1H-pyrazol-4-yl)-2-[3-(1-methyl-1H-pyrazol-4-yl)-phenyl]-pyrimidin-4-yl}-piperidin-3-yl)-methylamine Hydrochoride] | > 5 | 1000 to 5000 |
| Cn1cc(-c2cccc(-c3ncc(-c4ccn(C)n4)c(OCC4CCCCO4)n3)c2)cn1 (centres unmarked) [Example 8, 5-(1-Methyl-1H-pyrazol-3-yl)-2-[3-(1-methyl-1H-pyrazol-4-yl)-phenyl]-4-(tetrahydro-pyran-2-ylmethoxy)-pyrimidine] | > 5 | 1000 to 5000 |
| Cn1cc(-c2cccc(-c3ncc(-c4ccn(C)n4)c(NCC4CCNCC4)n3)c2)cn1 [Example 12, {5-(1-Methyl-1H-pyrazol-3-yl)-2-[3-(1-methyl-1H-pyrazol-4-yl)-phenyl]-pyrimidin-4-yl}-piperidin-4-ylmethyl-amine] | > 5 | > 5000 |
| Cn1cc(-c2cccc(-c3ncc(-c4cnn(C)c4)c(NC4CCN(S(C)(=O)=O)CC4)n3)c2)cn1 [Example 14, (1-Methanesulfonyl-piperidin-4-yl)-{5-(1-methyl-1H-pyrazol-4-yl)-2-[3-(1-methyl-1H-pyrazol-4-yl)-phenyl]-pyrimidin-4-yl}-amine] | < 0.1 | < 100 |
| Cn1cc(-c2cccc(-c3cc(C(F)(F)F)c(-c4cnn(C5CCOCC5)c4)cn3)c2)cn1 [Example 23, 2-[3-(1-Methyl-1H-pyrazol-4-yl)-phenyl]-5-[1-(tetrahydro-pyran-4-yl)-1H-pyrazol-4-yl]-4-trifluoromethyl-pyridine] | > 5 | 1000 to 5000 |
| Cc1cc(-c2cccc(-c3cnn(C)c3)c2)ncc1-c1cnn(C2CCOCC2)c1 [Example 24, 4-Methyl-2-[3-(1-methyl-1H-pyrazol-4-yl)-phenyl]-5-[1-(tetrahydro-pyran-4-yl)-1H-pyrazol-4-yl]-pyridine] | > 5 | 1000 to 5000 |
| Cn1cc(-c2cccc(-c3ncc(-c4cnn(C)c4)c(NCC(N)=O)n3)c2)cn1 [Example 25, 2-{5-(1-Methyl-1H-pyrazol-4-yl)-2-[3-(1-methyl-1H-pyrazol-4-yl)-phenyl]-pyrimidin-4-ylamino}-acetamide formate] | > 5 | 1000 to 5000 |
| Cn1cc(-c2cccc(-c3ncc(-c4cnn(C)c4)c(NCC(=O)O)n3)c2)cn1 [Example 26, {5-(1-Methyl-1H-pyrazol-4-yl)-2-[3-(1-methyl-1H-pyrazol-4-yl)-phenyl]-pyrimidin-4-ylamino}-acetic Acid Formate] | > 5 | > 5000 |

| SMILES | IC50 [1] [µM] | IC50 [2] [nM] |
| --- | --- | --- |
| Cn1cc(-c2cccc(-c3ncc(-c4ccn(C)n4)c(NC4CCC4)n3)c2)cn1 [Example 27, Cyclobutyl-{5-(1-methyl-1H-pyrazol-3-yl)-2-[3-(1-methyl-1H-pyrazol-4-yl)-phenyl]-pyrimidin-4-yl}-amine] | 1 to 5 | 100 to 1000 |
| Cn1cc(-c2cccc(-c3ncc(-c4ccn(C)n4)c(NC4CC4)n3)c2)cn1 [Example 29] | 1 to 5 | 100 to 1000 |
| Cn1cc(-c2cccc(-c3ncc(-c4cnn(C)c4)c(NC4CC4)n3)c2)cn1 [Example 30] | 0.1 to 1 | 100 to 1000 |
| Cn1cc(-c2cccc(-c3ncc(-c4cnn(C)c4)c(NC4CCC4)n3)c2)cn1 [Example 31] | 0.1 to 1 | 100 to 1000 |
| Cn1cc(-c2cccc(-c3ncc(-c4ccn(C)n4)c(NC4CCCC4)n3)c2)cn1 [Example 33] | 1 to 5 | 1000 to 5000 |
| Cn1cc(-c2cccc(-c3ncc(-c4cnn(C)c4)c(NCCN)n3)c2)cn1 [Example 34] | > 5 | 1000 to 5000 |
| Cn1cc(-c2cccc(-c3ncc(-c4cnn(C)c4)c(NCCN4CCCC4=O)n3)c2)cn1 [Example 39] | > 5 | 1000 to 5000 |
| Cn1cc(-c2cccc(-c3ncc(-c4cnn(C)c4)c(NCCCN4CCCC4=O)n3)c2)cn1 [Example 40] | > 5 | 1000 to 5000 |
| Cn1cc(-c2cccc(-c3ncc(-c4cnn(C)c4)c(NCCCN4CCOCC4)n3)c2)cn1 [Example 51] | > 5 | 1000 to 5000 |
| Cn1cc(-c2cccc(-c3ncc(-c4cnn(C)c4)c(NCCN4CCNC4=O)n3)c2)cn1 [Example 58] | 1 to 5 | 1000 to 5000 |
| Cn1cc(-c2cccc(-c3ncc(-c4cnn(C)c4)c(NCC4CNCCO4)n3)c2)cn1 (centres unmarked) [Example 59] | > 5 | 100 to 1000 |
| Cn1cc(-c2cccc(-c3ncc(-c4cnn(C)c4)c(NC[C@@H]4CCC(=O)N4)n3)c2)cn1 [Example 61] | > 5 | 100 to 1000 |
| Cn1cc(-c2cccc(-c3ncc(-c4cnn(C)c4)c(NC[C@H]4CCNC4)n3)c2)cn1 [Example 64] | 1 to 5 | 100 to 1000 |
| Cn1cc(-c2cccc(-c3ncc(-c4ccn(C)n4)c(NCCCN4CCOC4=O)n3)c2)cn1 [Example 67] | > 5 | 100 to 1000 |
| Cn1cc(-c2cccc(-c3ncc(-c4ccn(C)n4)c(NCCCO)n3)c2)cn1 [Example 68] | 1 to 5 | 100 to 1000 |
| Cn1cc(-c2cccc(-c3ncc(-c4ccn(C)n4)c(NCCN4CCOCC4)n3)c2)cn1 [Example 69] | > 5 | 100 to 1000 |
| Cn1cc(-c2cccc(-c3ncc(-c4ccn(C)n4)c(NCCN4CCCC4=O)n3)c2)cn1 [Example 70] | 0.1 to 1 | 1000 to 5000 |
| Cn1cc(-c2cccc(-c3ncc(-c4ccn(C)n4)c(NCC4(C)CCC4)n3)c2)cn1 [Example 71] | > 5 | > 5000 |
| Cn1cc(-c2cccc(-c3ncc(-c4ccn(C)n4)c(NCCCN4CCCC4=O)n3)c2)cn1 [Example 72] | > 5 | 1000 to 5000 |
